Assay results from patent US12485085B2, “PPAR agonist complex and methods of use” (RODAN & FIELDS, LLC, priority 2019, dated 2025).
Values belong to the molecule of their own block, whether it stands above or below them.

Tests used:
[1] = target: T1, PPAR-α (Homo sapiens, UniProt Q07869); experiment: PPAR-α luciferase reporter assay in CHO cells
T1 sequence (Q07869 1-468): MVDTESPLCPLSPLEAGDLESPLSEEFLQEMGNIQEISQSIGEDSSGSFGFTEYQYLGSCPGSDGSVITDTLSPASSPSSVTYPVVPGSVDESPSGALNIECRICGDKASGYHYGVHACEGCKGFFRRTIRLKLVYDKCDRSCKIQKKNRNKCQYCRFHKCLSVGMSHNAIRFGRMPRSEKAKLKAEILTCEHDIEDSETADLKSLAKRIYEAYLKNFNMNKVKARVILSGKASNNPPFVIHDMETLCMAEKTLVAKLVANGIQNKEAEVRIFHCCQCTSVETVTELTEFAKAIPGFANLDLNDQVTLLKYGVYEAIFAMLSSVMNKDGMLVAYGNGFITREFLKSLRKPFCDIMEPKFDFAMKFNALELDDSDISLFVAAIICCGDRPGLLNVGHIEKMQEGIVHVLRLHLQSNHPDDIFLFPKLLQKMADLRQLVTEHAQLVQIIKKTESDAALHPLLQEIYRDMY
Method: The objective of this project was to determine the effects of the test materials listed in Table 4 on the transcription regulatory activity of PPARα in a luciferase reporter assay system.
A variety of samples were tested on the effect on the transcription of the PPAR-α controlled luciferase reporter gene.
PPAR-α Luciferase experiment: Compositions were tested at 250 μg/mL Dilution in DMSO (FIG. 1) and 500 μg/mL Dilution in DMSO (FIG. 2).
Table 5 summarizes the effect of different concentrations of test materials on the transcriptional activation of the luciferase reporter gene under the PPAR-α-controlled promoter (2 separate experiments, Experiment 1 wherein sample prep was done in water and Experiment 2 wherein the sample prep was done in DMSO).

[2] = system: CHO cells; experiment: Cytotoxicity observed in the PPAR-α luciferase reporter assay; settings: for Cytotoxic?: Experiment 2 (sample prep in DMSO)
Method: A variety of samples were tested on the effect on the transcription of the PPAR-α controlled luciferase reporter gene. CHO cells were utilized and are an epithelial cell line derived from the ovary of the Chinese hamster.

[3] = system: C57BL/6 mouse melanocytes; experiment: Melanin content in melanocytes and melanocyte-conditioned medium; format: cell-based; settings: 3 days; for % Control (extracellular melanin): melanocyte-conditioned medium
Method: Materials & Methods: Test material was dissolved at 100 mg/ml in DMSO the day of the experiment, diluted in sterile distilled water and samples were added in duplicates to confluent cultures of C57BL/6 mouse melanocytes well plate format. The cell growth medium was Opti-MEM supplemented with 7% horse serum (ThermoFisher Scientific, Waltham, Mass.) and antibiotics. Medium was freshly changed on Day 0 of the experiment. Cells were grown in the presence of the test material for 3 days, afterward they were frozen at −20° C., lysed in Solvable (Perkin Elmer, Waltham, Mass.) at 37° C. for 60 min. and colorimetrically quantified at 490 nm with Molecular Devices (Sunnyvale, Calif.) microplate reader MAX190. Kojic acid (100 μg/ml and 200 μg/ml) was the positive control. Statistically significant variation was defined as >20% variation from the water control with p value<0.05 calculated with double-tailed t-test.
Test materials were added to exponentially-growing cultures and the experiment was terminated 3 days later.

[4] = target: T2, PPAR-γ (Homo sapiens, UniProt P37231); experiment: PPAR-γ luciferase experiment; format: cell-based; settings: statement of the description
T2 sequence (P37231 1-505): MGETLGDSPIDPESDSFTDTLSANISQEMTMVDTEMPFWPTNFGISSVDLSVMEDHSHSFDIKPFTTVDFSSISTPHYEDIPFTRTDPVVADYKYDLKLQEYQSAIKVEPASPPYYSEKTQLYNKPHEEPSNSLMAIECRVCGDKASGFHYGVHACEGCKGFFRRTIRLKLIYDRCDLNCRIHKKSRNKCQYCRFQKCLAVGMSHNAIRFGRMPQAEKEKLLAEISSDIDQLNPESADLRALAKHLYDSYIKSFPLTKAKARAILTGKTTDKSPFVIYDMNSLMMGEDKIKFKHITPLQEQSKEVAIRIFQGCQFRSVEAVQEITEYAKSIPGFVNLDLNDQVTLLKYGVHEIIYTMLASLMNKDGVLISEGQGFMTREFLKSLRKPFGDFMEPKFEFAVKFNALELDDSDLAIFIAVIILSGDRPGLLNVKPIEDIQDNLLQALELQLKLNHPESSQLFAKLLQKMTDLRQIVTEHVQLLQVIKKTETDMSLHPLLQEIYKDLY
Method: PPAR-γ Luciferase experiment: Compositions were tested at 50 μg/mL Dilution in DMSO (FIG. 3) and 200 μg/mL Dilution in DMSO (FIG. 4). Positive control: Rosiglitazone at 300 nM potent and selective agonist of PPARγ.

[5] = Lipophilic oxygen radical absorbance capacity (Lipo-ORAC) assay; format: biochemical; settings: expressed in Trolox equivalents
Method: Because of its damaging effect on vital biological systems, oxidative stress has been implicated in more than 100 diseases and aging. The objective of this test was to measure the antioxidant potential of the test materials listed in Table I using lipophilic oxygen radical absorbance capacity (Lipo-ORAC) assay (Stock solutions were prepared in acetone at 2% and diluted in 7% RMCD immediately before the experiment). Lipo-ORAC assay measures the ability of antioxidant compounds to inhibit the decline in disodium fluorescein (FL) fluorescence that is induced by peroxyl radical generator, 2′,2′-Azobis (2-amidinopropane) dihydrochloride (AAPH). The peroxyl radical is one of the most common reactive oxygen species (ROS) found in the body. This procedure incorporates random methylated beta-cyclodextrin as a solubility enhancer and allows for quantification of antioxidant potential of lipophilic samples, using Trolox as standard. Applied Biosystems Cytofluor 4000 fluorometer and software were used for the quantification of this assay.

[6] = system: EpiDerm skin substitutes; experiment: Skin irritation in reconstructed human epidermal model EpiDerm (MTT viability); format: cell-based; design: key to Classification: I = irritant; NI = non irritant
Method: Materials and Methods: Thirty p of each sample was applied on top of EpiDerm skin substitutes.
EpiDerm skin substitutes (cat. EPI-200-SIT; Lot #29690) and 5% SDS solution (positive control) were obtained from MatTek (Ashland, Mass.). The test was generally performed according to MatTek protocol. The study was conducted in line with requirements of OECD GD 34 and ECVAM Performance Standard document for applying human skin models to in vitro skin irritation. This protocol utilizes the MTT-based cytotoxicity readout as the experimental endpoint, and thus effectively measures the cytotoxicity of test materials at the level of the skin. MTT [3-(4,5-Dimethylthiazol-2-yl)-2,5-diphenyltetrazolium bromide, a tetrazole] which is yellow, is reduced to purple formazan in living cells and this conversion is measured in a colorimetric assay. MTT assay measures the activity of succinate dehydrogenase, a key enzyme in the respiratory electron transport chain in mitochondria and is a generally-accepted test for measuring cytotoxicity.
Statistically significant variation was defined as ≥15% variation from the water control with p value<0.05 calculated using double-tailed t-test.

[7] = system: IL-8; experiment: IL-8 quantification in EpiDerm-conditioned media (ELISA); format: cell-based, human
Method: The test material was assayed in duplicates. Controls were assayed in triplicates. The negative control was type I sterile water and Finsolv. The positive control was 5% SDS. All incubations were at 37° C. The pre-incubation time 1 (tissue acclimatization time) was overnight and the exposure to samples was 60 min. Tissues were then rinsed with sterile PBS and placed in the new culture medium. Post-incubation time 1 was 24 h, afterward medium was collected and saved at −20° C. for later interleukin quantification, and tissues were placed in new medium. Post-incubation time 2 was 18 h (both post-incubation times are to allow the consequences of the potential irritation to fully develop), MTT test (irritation readout) was 3 h and the extraction was left overnight. The extracted formazan (the product of the MTT conversion, proportional to cell viability) was quantified with Molecular Devices microplate reader MAX190 by colorimetry. Signal quantification was performed using SoftMax3.1.2PRO at 560 nm. For IL-8 quantification (a complementary method for assessing skin irritation), 100 μl samples of media from each well were tested in triplicates using CytoSet antibody pair for ELISA from Thermo Fischer Scientific (Waltham, Mass.; cat. #133301) according to the manufacturer's instructions. […]

[8] = Experiment 2 (sample prep in DMSO), 250 μg/mL
[9] = Experiment 2 (sample prep in DMSO), 500 μg/mL
[10] = Experiment 1 (sample prep in water), 300 nM
[11] = Experiment 2 (sample prep in DMSO), 300 nM

Molecule: O=c1cc(CO)occ1O [Kojic acid]
% Control (intracellular melanin) ([3]; 100 μg/ml): 92%
% Control (extracellular melanin) ([3]; 100 μg/ml): 90%
% Control (intracellular melanin) ([3]; 200 μg/ml): 86%
% Control (extracellular melanin) ([3]; 200 μg/ml): 84%

Molecule: CCCCCCCCC(CCCCCC)C(=O)OC[C@H](OC(=O)C(CCCCCC)CCCCCCCC)[C@H]1OC(=O)C(OC(=O)C(CCCCCC)CCCCCCCC)=C1OC(=O)C(CCCCCC)CCCCCCCC (some centres unmarked) [Tetrahexyldecyl (THD) ascorbate]
ORAC (Lipo-ORAC score) [5]: 0 μmoles TE/g
ORAC (Lipo-ORAC score) ([5]; listed as THD ascorbate): no activity

Molecule: CCCCCCCCCCCCOS(=O)(=O)[O-].[Na+] [5% SDS]
cells viable ([6]; MTT): 12%
Mean of OD ([6]; MTT formazan at 560 nm, 60 min exposure, RFV3 at 10% in Finsolv): 0.038
Mean of Viability [% water] ([6]; MTT, 60 min exposure, RFV3 at 10% in Finsolv): 2 % water
Classification ([6]; RFV3 at 10% in Finsolv): I
decrease of the IL-8 level [7]: 55%

Molecule: Cc1c(C)c2c(c(C)c1O)CCC(C)(C(=O)O)O2 (centres unmarked) [Trolox]
ORAC (Lipo-ORAC score) [5]: 3985 μmoles TE/g

Continued, in another order:

% Control (H2O) [1, 8]: 45%
Chemoluminescence [1, 8]: 2 arbitrary units
% Control (H2O) [1, 9]: 41%
Chemoluminescence [1, 9]: 2 arbitrary units
Molecule: CCCCCCCCC(O)CCCCCCCCC(=O)O (centres unmarked) [10HSA, Hydroxystearic Acid]
Cytotoxic? ([2]; 250 μg/mL): Yes
Cytotoxic? ([2]; 500 μg/mL): Yes

% Control (H2O) [1, 8]: 278%
Chemoluminescence [1, 8]: 15 arbitrary units
% Control (H2O) [1, 9]: 97%
Chemoluminescence [1, 9]: 5 arbitrary units
Molecule: Octadecenedioic Acid [ODA]

PPARγ agonist activity (in words) [4]: moderate PPARγ agonist
% Control (H2O) [1, 8]: 145%
Chemoluminescence [1, 8]: 8 arbitrary units
% Control (H2O) [1, 9]: 24%
Chemoluminescence [1, 9]: 1 arbitrary units
PPAR / PPARα agonist activity (in words) ([1]; statements of the description): very mild PPARα agonist
Molecule: CCCCCC/C=C/C#CCCCCCCCC(=O)O [XA, (E)-Octadec-11-en-9-ynoic acid]
cytotoxicity (in words) ([2]; Example 8, FIG. 9, 500 μg/mL in DMSO): cytotoxic
Cytotoxic? ([2]; 500 μg/mL): Yes

% Control (H2O) [1, 10]: 365%
Chemoluminescence [1, 10]: 344 arbitrary units
% Control (H2O) [1, 11]: 341%
Chemoluminescence [1, 11]: 19 arbitrary units
effect on transcriptional activation of the luciferase reporter gene under the PPAR-α-controlled promoter (in words) ([1]; summary of Table 5): strongly upregulated
Molecule: Cc1nc(-c2ccc(C(F)(F)F)cc2)sc1C(=O)NCc1ccc(OC(C)(C)C(=O)O)cc1 [GW590735]
